According to patent publication US12150998B2, “Bicyclic peptide ligands specific for P-selectin” (BicycleTx Limited, priority 2021, dated 2024):
Read-outs that look alike come from different tables or passages of the source. Starred links: 1 amine or outer side, 2 acyl side, 3 side chain; linkers in the order of their positions; H or OH if unused. Positions of bridges follow the written chain, without caps; N, C: chain ends. Residues, ends and D or L forms follow the SMILES beside them. Chains are numbered I, II in the order given. X2 = O=C(CCCC(=O)NCCOCCOCCOCCOCCOCCOCCOCCOCCOCCOCCOCCOCCOCCOCCOCCOCCOCCOCCOCCOCCOCCOCCOCCn1cc(CCC(=O)[*:2])nn1)NCCOCCOCCOCCOCCOCCOCCOCCOCCOCCOCCOCCOCCOCCOCCOCCOCCOCCOCCOCCOCCOCCOCCOCCn1cc(CCC(=O)[*:1])nn1; X5 = O=C(CCCC(=O)NCCOCCOCCOCCOCCOCCOCCOCCOCCOCCOCCn1cc(CCC(=O)[*:2])nn1)NCCOCCOCCOCCOCCOCCOCCOCCOCCOCCOCCn1cc(CCC(=O)[*:1])nn1; TATA = O=C(CC[*:1])N1CN(C(=O)CC[*:2])CN(C(=O)CC[*:3])C1

Molecular target: T1, human P-Selectin protein (Homo sapiens, UniProt P16109)
T1 sequence (P16109 42-830): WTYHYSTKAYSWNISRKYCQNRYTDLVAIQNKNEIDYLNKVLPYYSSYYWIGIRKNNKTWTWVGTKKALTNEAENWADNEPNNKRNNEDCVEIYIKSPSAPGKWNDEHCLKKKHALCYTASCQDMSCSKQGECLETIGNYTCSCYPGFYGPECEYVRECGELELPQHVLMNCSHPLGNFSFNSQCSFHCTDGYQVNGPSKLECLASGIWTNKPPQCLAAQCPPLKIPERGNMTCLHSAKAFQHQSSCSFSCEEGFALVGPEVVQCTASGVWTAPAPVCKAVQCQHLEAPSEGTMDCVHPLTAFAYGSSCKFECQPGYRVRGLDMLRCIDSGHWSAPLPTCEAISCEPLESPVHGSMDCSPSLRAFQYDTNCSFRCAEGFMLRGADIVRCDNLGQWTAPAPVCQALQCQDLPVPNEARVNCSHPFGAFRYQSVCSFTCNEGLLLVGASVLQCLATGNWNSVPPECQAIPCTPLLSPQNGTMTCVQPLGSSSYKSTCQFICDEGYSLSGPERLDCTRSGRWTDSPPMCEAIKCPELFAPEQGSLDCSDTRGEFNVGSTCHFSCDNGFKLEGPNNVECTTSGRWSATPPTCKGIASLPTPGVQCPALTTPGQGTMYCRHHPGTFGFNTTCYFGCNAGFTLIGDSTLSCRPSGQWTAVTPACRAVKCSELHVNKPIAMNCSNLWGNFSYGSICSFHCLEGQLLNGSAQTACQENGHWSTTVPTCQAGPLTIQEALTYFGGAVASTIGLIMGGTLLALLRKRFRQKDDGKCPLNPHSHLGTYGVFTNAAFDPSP
Experiment: SPR binding assay (Biacore)
Conditions: recombinant biotinylated human P-Selectin, 25° C.
Procedure: Biacore experiments were performed to determine ka (M−1s−1), kd (s−1), KD (nM) values of monomeric peptides binding to human Selectin proteins. Recombinant biotinylated human P-Selectin protein was used. For analysis of binding, either a Biacore 3000 or 5200 instrument was used with a CMS sensor chip (GE Healthcare). For sensor chip surface preparation, streptavidin was immobilized on the chip using standard amine-coupling chemistry at 25° C. with HBS-N (10 mM HEPES, 0.15 M NaCl, pH 7.4) as the running buffer. The carboxymethyl dextran surface was activated with a 12 min injection of a 1:1 ratio of 0.4 M 1-ethyl-3-(3-dim ethyl aminopropyl) carbodiimide hydrochloride (EDC)/0.1 M N-hydroxy succinimide (NHS) at a flow rate of 10 μl/min. For capture of streptavidin, protein was diluted to 0.2 mg/ml in 10 mM sodium acetate (pH 4.5) and captured by injecting 70 μl onto the activated chip surface. Residual activated groups were blocked with a 7 min injection of 1 M ethanolamine (pH 8.5). Biotinylated protein stock was diluted 1:100 in HBS-N and captured on one flow cell at 5 μl/min to a level of 1000-1500 RU. Buffer was changed to PBS/0.05% Tween 20 and a dilution series of the peptides was prepared in this buffer with a final DMSO concentration of 0.5%. The top concentration of the analyte varied from 200 nM to 50 μM; depending on predicted affinity of the interaction. In all cases a titration was performed with either seven 2-fold dilutions or five 3-fold dilutions. The SPR analysis was run at 25° C. with a flow rate of 50-80 μl/min with 60 seconds association and a suitable disassociation period (100-900 seconds). Data were corrected for DMSO excluded volume effects. All data were double-referenced for blank injections and reference surface using standard processing procedures and data processing and kinetic fitting were performed using Scrubber software, version 2.0c (BioLogic Software). Data were fitted using mass transport model allowing for mass transport effects where appropriate.

[1] = read-out: Affinity KD determined by SPR

SMILES	Kd [1] [nM]	Kd (Affinity KD determined by SPR) [nM]
CSCC[C@@H]1NC(=O)[C@H](Cc2ccc(O)cc2)NC(=O)[C@@H](NC(=O)[C@H](C)NC(=O)CCc2cn(CCOCCOCCOCCOCCOCCOCCOCCOCCOCCOCCNC(=O)CCCC(=O)NCCOCCOCCOCCOCCOCCOCCOCCOCCOCCOCCn3cc(CCC(=O)N[C@@H](C)C(=O)N[C@H]4CSCCC(=O)N5CN6CN(C5)C(=O)CCSC[C@H](NC(=O)[C@H](Cc5c[nH]c7ccccc57)NC(=O)[C@H](CCC(=O)O)NC(=O)[C@H](CCSC)NC(=O)[C@H](Cc5ccc(O)cc5)NC4=O)C(=O)N[C@@H](CC(=O)O)C(=O)N[C@@H](C(C)C)C(=O)N[C@@H]([C@@H](C)O)C(=O)N[C@@H](CC(=O)O)C(=O)N[C@@H](Cc4ccc(O)cc4)C(=O)NCC(=O)N[C@H](C(=O)N[C@@H](C)C(N)=O)CSCCC6=O)nn3)nn2)CSCCC(=O)N2CN3CN(C2)C(=O)CCSC[C@H](NC(=O)[C@H](Cc2c[nH]c4ccccc24)NC(=O)[C@H](CCC(=O)O)NC1=O)C(=O)N[C@@H](CC(=O)O)C(=O)N[C@@H](C(C)C)C(=O)N[C@@H]([C@@H](C)O)C(=O)N[C@@H](CC(=O)O)C(=O)N[C@@H](Cc1ccc(O)cc1)C(=O)NCC(=O)N[C@H](C(=O)N[C@@H](C)C(N)=O)CSCCC3=O [BCY5454]	400	
CSCC[C@@H]1NC(=O)[C@H](Cc2ccc(O)cc2)NC(=O)[C@@H](NC(=O)[C@H](C)NC(C)=O)CSCCC(=O)N2CN3CN(C2)C(=O)CCSC[C@H](NC(=O)[C@H](Cc2c[nH]c4ccccc24)NC(=O)[C@H](CCC(=O)O)NC1=O)C(=O)N[C@@H](CC(=O)O)C(=O)N[C@@H](C(C)C)C(=O)N[C@@H]([C@@H](C)O)C(=O)N[C@@H](CC(=O)O)C(=O)N[C@@H](Cc1ccc(O)cc1)C(=O)NCC(=O)N[C@H](C(=O)N[C@@H](CCCCNC(=O)CCc1cn(CCOCCOCCOCCOCCOCCOCCOCCOCCOCCOCCNC(=O)CCCC(=O)NCCOCCOCCOCCOCCOCCOCCOCCOCCOCCOCCn2cc(CCC(=O)NCCCC[C@H](NC(=O)[C@@H]4CSCCC(=O)N5CN6CN(C5)C(=O)CCSC[C@H](NC(=O)[C@H](Cc5c[nH]c7ccccc57)NC(=O)[C@H](CCC(=O)O)NC(=O)[C@H](CCSC)NC(=O)[C@H](Cc5ccc(O)cc5)NC(=O)[C@@H](NC(=O)[C@H](C)NC(C)=O)CSCCC6=O)C(=O)N[C@@H](CC(=O)O)C(=O)N[C@@H](C(C)C)C(=O)N[C@@H]([C@@H](C)O)C(=O)N[C@@H](CC(=O)O)C(=O)N[C@@H](Cc5ccc(O)cc5)C(=O)NCC(=O)N4)C(N)=O)nn2)nn1)C(N)=O)CSCCC3=O [BCY5456] (I: Ac-ACYMEWCDVTDYGCK-NH2 / II: Ac-ACYMEWCDVTDYGCK-NH2; linker I:2-I:7-I:14, II:2-II:7-II:14 via TATA; linker I:15-II:15 via X5)	500	
CSCC[C@@H]1NC(=O)[C@H](Cc2ccc(O)cc2)NC(=O)[C@@H](NC(=O)[C@H](C)NC(C)=O)CSCCC(=O)N2CN3CN(C2)C(=O)CCSC[C@H](NC(=O)[C@H](Cc2c[nH]c4ccccc24)NC(=O)[C@H](CCC(=O)O)NC1=O)C(=O)N[C@@H](CC(=O)O)C(=O)N[C@@H](C(C)C)C(=O)N[C@@H]([C@@H](C)O)C(=O)N[C@@H](CC(=O)O)C(=O)N[C@@H](Cc1ccc(O)cc1)C(=O)NCC(=O)N[C@H](C(=O)N[C@@H](CCCCNC(=O)CCc1cn(CCOCCOCCOCCOCCOCCOCCOCCOCCOCCOCCOCCOCCOCCOCCOCCOCCOCCOCCOCCOCCOCCOCCOCCNC(=O)CCCC(=O)NCCOCCOCCOCCOCCOCCOCCOCCOCCOCCOCCOCCOCCOCCOCCOCCOCCOCCOCCOCCOCCOCCOCCOCCn2cc(CCC(=O)NCCCC[C@H](NC(=O)[C@@H]4CSCCC(=O)N5CN6CN(C5)C(=O)CCSC[C@H](NC(=O)[C@H](Cc5c[nH]c7ccccc57)NC(=O)[C@H](CCC(=O)O)NC(=O)[C@H](CCSC)NC(=O)[C@H](Cc5ccc(O)cc5)NC(=O)[C@@H](NC(=O)[C@H](C)NC(C)=O)CSCCC6=O)C(=O)N[C@@H](CC(=O)O)C(=O)N[C@@H](C(C)C)C(=O)N[C@@H]([C@@H](C)O)C(=O)N[C@@H](CC(=O)O)C(=O)N[C@@H](Cc5ccc(O)cc5)C(=O)NCC(=O)N4)C(N)=O)nn2)nn1)C(N)=O)CSCCC3=O [BCY5457] (I: Ac-ACYMEWCDVTDYGCK-NH2 / II: Ac-ACYMEWCDVTDYGCK-NH2; linker I:2-I:7-I:14, II:2-II:7-II:14 via TATA; linker I:15-II:15 via X2)		969
CSCC[C@@H]1NC(=O)[C@H](Cc2ccc(O)cc2)NC(=O)[C@@H](NC(=O)[C@H](C)NC(=O)CCc2cn(CCOCCOCCOCCOCCOCCOCCOCCOCCOCCOCCNC(=O)CCOCCN(CCOCCC(=O)NCCOCCOCCOCCOCCOCCOCCOCCOCCOCCOCCn3cc(CCC(=O)N[C@@H](C)C(=O)N[C@H]4CSCCC(=O)N5CN6CN(C5)C(=O)CCSC[C@H](NC(=O)[C@H](Cc5c[nH]c7ccccc57)NC(=O)[C@H](CCC(=O)O)NC(=O)[C@H](CCSC)NC(=O)[C@H](Cc5ccc(O)cc5)NC4=O)C(=O)N[C@@H](CC(=O)O)C(=O)N[C@@H](C(C)C)C(=O)N[C@@H]([C@@H](C)O)C(=O)N[C@@H](CC(=O)O)C(=O)N[C@@H](Cc4ccc(O)cc4)C(=O)NCC(=O)N[C@H](C(=O)N[C@@H](C)C(N)=O)CSCCC6=O)nn3)CCOCCC(=O)NCCOCCOCCOCCOCCOCCOCCOCCOCCOCCOCCn3cc(CCC(=O)N[C@@H](C)C(=O)N[C@H]4CSCCC(=O)N5CN6CN(C5)C(=O)CCSC[C@H](NC(=O)[C@H](Cc5c[nH]c7ccccc57)NC(=O)[C@H](CCC(=O)O)NC(=O)[C@H](CCSC)NC(=O)[C@H](Cc5ccc(O)cc5)NC4=O)C(=O)N[C@@H](CC(=O)O)C(=O)N[C@@H](C(C)C)C(=O)N[C@@H]([C@@H](C)O)C(=O)N[C@@H](CC(=O)O)C(=O)N[C@@H](Cc4ccc(O)cc4)C(=O)NCC(=O)N[C@H](C(=O)N[C@@H](C)C(N)=O)CSCCC6=O)nn3)nn2)CSCCC(=O)N2CN3CN(C2)C(=O)CCSC[C@H](NC(=O)[C@H](Cc2c[nH]c4ccccc24)NC(=O)[C@H](CCC(=O)O)NC1=O)C(=O)N[C@@H](CC(=O)O)C(=O)N[C@@H](C(C)C)C(=O)N[C@@H]([C@@H](C)O)C(=O)N[C@@H](CC(=O)O)C(=O)N[C@@H](Cc1ccc(O)cc1)C(=O)NCC(=O)N[C@H](C(=O)N[C@@H](C)C(N)=O)CSCCC3=O [BCY5458]	400	
